Results reported in patent US8138188B2, “Melanocortin type 4 receptor agonist piperidinoylpyrrolidines” (Pfizer Inc., priority 2006, dated 2012).
pEC50, pKi: −log10 of the molar value.

Assays:
[1] = In vitro metabolism rate determination, rat liver microsome (RLM) assay; format: in vitro ADME; details: rat liver microsomes, substrate 1 μM; read-out: RLM (intrinsic clearance)
Source text: (§1) In vitro Metabolism Rate Determination (Human Liver Microsome (HLM); Rat Liver Microsome (RLM) Assay)
(§2) Many drugs are metabolised by the cytochrome P450 mono-oxygenase system. This enzyme is found in high concentrations in the liver and is bound to the endoplasmic reticulum of the hepatocyte. The enzyme system can be obtained in semi-purified state by the preparation of the hepatic microsomal fractions. Determining a compound's in vitro half-life in such a system provides a useful indicator of metabolic stability.
(§3) Methodology For In Vitro Rate Determination Using Hepatic & Supermix Microsomes
(§4) The method outlined below is for a total incubation volume of 1.5 ml.
(§5) 1. The following mixture is prepared in a test tube:
(§6) 2. Defrost microsomes at room temperature and add sufficient microsomes to give a final concentration of 0.5 nmol cytochrome P450/ml of incubation e.g. for a 1.5 ml incubation, the volume of microsomes to be added is:
(§7) [formula] 3. Add sufficient MilliQ water to give a total incubation volume of 1.425 ml. 4. Remove 237.5 μl of incubation mix and place in test tube for PNA positive control. Add 2.5 μl of PNA solution, whirlimix, and put tube into a rack in the thermostatically controlled shaking water bath 5. Remove 100 μl for no substrate control and dispense in test tube. Place test tube in a rack in the thermostatically controlled shaking water bath. 6. Add substrate to the incubation. The substrate should be at an initial concentration of 1 μM. The volume of substrate required in the remaining 1.162.5 ml incubation is calculated as follows:
(§8) [formula] • N.B. The volume of organic solvent added should not exceed 0.1% of the total incubation volume. 7. Remove 100 μl of incubation mix into test tube for no cofactor control. Whirlimix and put into a rack in the thermostatically controlled shaking water bath. 8. Pre-incubate the tube containing the incubation mix, also positive control and no cofactor tubes in the thermostatically controlled shaking water bath set at 37° C. for approx 5 min. 9. Add NADP to initiate reaction (75 μl to each 1.162.5 ml incubation mix, 12.5 μl to positive control tube and 5 μl to no substrate tube) and take first time point immediately. The PNA positive control, no cofactor control and no substrate tubes are incubated for the total incubation time. 10. Remove 100 μl aliquots up to 9 different sampling points from 0 to 60 min (usually 0, 3, 5, 10, 15, 20, 30, 45 & 60 min) and terminate reaction. Longer incubation times can be used, but, after 120 min the microsomes deteriorate. The reaction may be terminated by addition of organic solvent, acid or base. At the end of the incubation process the no cofactor and no substrate controls in a similar manner i.e. terminate with the same reagent. 11. PNA Positive Control Procedure: • After the final sample has been taken, remove the positive control and add 1 ml 20% TCA to this tube. Also prepare a tube containing 250 μl of a PNP standard at 50 μM, and add 1 ml 20% TCA. Whirlimix both tubes and leave for approx 5 min to allow the protein to precipitate. • Centrifuge both tubes for approx 5 min in an instrument set at 3500 rpm. Remove 1 ml of supernatant and place into clean test tubes, discard the remainder. • Add 1 ml 10M NaOH to the supernatant, whirlimix, and leave to stand for approx min. Blank spectrophotometer with distilled water at 400 nm then measure absorbance of the PNP standard against distilled water. The microsomal 4-nitroanisole O-demethylase activity is calculated as follows: Calculation of Results
(§9) [formula] • The activity value from the incubation MUST be equal to or greater than 85% of the mean value of the batch used for the incubation to be valid. If this criteria is not met, then the incubation must be repeated. 11. Analyse samples (including no cofactor and no substrate control) by a specific assay for the substrate to determine the disappearance kinetics. Analysis Of Data […]

human MC3 receptor = target: T1, human MC3 receptor (Homo sapiens, UniProt P41968); assay: In vitro agonist potency (EC50) against melanocortin receptor type 3, cAMP in recombinant cell line; format: cell-based; details: cell line stably transfected with human MC3, 1 hour at 37° C.
T1 construct: stably transfected with full length cDNA encoding human MC1 or MC3 receptors; expressed in transfected cells; host or cells: Chinese hamster ovary cell line (MC3; 'respectively')
Description: Measurement of In Vitro Agonist Potency (EC50) of Compounds Against Melanocortin Receptors Type 1 and 3 (MC1 and MC3).
Activation of melanocortin (MC) receptors by agonists results in activation of intracellular adenylate cyclase enzymes that synthesise the second messenger signalling molecule, adenosine 3′,5′-cyclic monophosphate (cAMP). Changes in cAMP levels following treatment of recombinant MC1 and MC3 cell lines with test compound were measured and an MC1 and MC3 potency estimate (EC50) calculated as follows: […]
Human embryonic kidney (HEK) or Chinese hamster ovary cell lines stably transfected with full length cDNA encoding human MC1 or MC3 receptors, respectively, were established using standard molecular biology methods. Test compounds were dissolved in dimethyl sulfoxide (DMSO) at 4 mM. 11 point half log unit increment dilution series of test compound, typically starting at 50 uM were prepared in a buffer comprised of phosphate buffered saline (PBS), 2.5% DMSO and 0.05% pluronic F-127 surfactant. Freshly cultured cells at 80-90% confluence were harvested and re-suspended in Dulbecco's Modified Eagle's Medium (DMEM). Cells (10,000 for MC3, 20,000 for MC1) were added to the test compound dilution series in a 384 well assay plate and incubated for 1 hour at 37° C. The relative cAMP concentration in each well was then measured using a β-galactosidase enzyme fragment complementation method purchased in kit form as the Discoverx cAMP II kit from GE Healthcare/Amersham Biosciences UK. In the case of MC1,3-Isobutyl-1-methylxanthine (IBMX) at a concentration of 750 μM was included in DMEM as the cells were re-suspended for assay. […] Sigmoidal curves were fitted to plots of log10 inhibitor concentration vs percent effect using a custom made software application called SIGHTS and EC50 estimates determined by the software as the concentration of test compound giving an effect half way between the bottom and top assymptopes of the sigmoidal dose response curve. Each experiment included an EC50 determination for alpha melanocyte stimulating hormone, which was used as a standard to track assay consistency and allow fair comparison between EC50 estimates obtained in different experiments.

[2] = In vitro metabolism rate determination, human liver microsome (HLM) assay; format: in vitro ADME; details: human liver microsomes, substrate 1 μM; read-out: HLM (intrinsic clearance)
Source text: as §1, §2, §3, §4, §5, §6, §7, §8, §9

MC4 receptor = MC4 receptor (Homo sapiens, UniProt P32245); assay: MC4 functional agonist potency (EC50), assay protocol E of US2005/0176772 / WO 2005/077935; format: cell-based; details: functional potency at the MC4 receptor
Description: The compounds of formula (I) of the present invention have utility as MCR4 agonists in the treatment of various disease states.
MC5 and MC4 EC50 activity was determined as described by assay protocols D and E, respectively, in US2005/0176772 (pages 28-30).

CYP3A4 = target: T2, CYP3A4 (Homo sapiens, UniProt P08684); assay: High density drug-drug interactions (DDI) 3 μM cocktail screen in human liver microsomes; format: in vitro ADME; details: 3 uM test compound, pooled human liver microsomes, probe midazolam 2 μM; read-out: % Inhibition of 3A4 metabolism at 3 uM
T2 construct: utilizes human liver microsomes together with isoform-specific clinical drug probes; from tissue; host or cells: human liver microsomes
Description: High Density Drug-Drug Interactions (DDI) 3 μM Cocktail Screen
A drug interaction is a situation in which a substance affects the activity of another drug, i.e. the effects are increased or decreased, or together they produce a new effect that neither produces on its own. Drug interactions may be the result of various processes but a relatively common one is where one drug affects the pharmacokinetics of another by inhibiting the cytochrome P450 that metabolises it. Because of the importance of these phenomena, assessment of the DDI potential for new chemical entities (NCEs) is considered important early on in the drug discovery process.
The DDI cocktail screen in human liver microsomes (HLM) is run in a fully automated fashion and the aim of the screen is to provide a single-point assessment of the DDI potential of new chemical entity (NCE; tested at 3 μM) against the 4 primary cytochrome P450 enzymes, 1A2, 2D6, 2C9 and 3A4.
The substrate cocktail approach for P450 DDI utilizes human liver microsomes together with isoform-specific clinical drug probes and permits the simultaneous measurement of the inhibition of P450 1A2, 2C9, 2D6 & 3A4 activities in a single incubation. This is run in high throughput with simultaneous detection of metabolites by LC-MS/MS. This method has been thoroughly tested and evaluated using standard compounds.
Appearance of the metabolite of each substrate is measured over time in the presence and absence of the NCE (test compound/inhibitor) at a concentration of 3 μM. The compounds are assessed for their inhibitory potential as a percentage value and interpreted using the following scheme.

MC4 receptor (MC4R) = target: T3, MC4 receptor (MC4R) (Homo sapiens, UniProt P32245); assay: AGRP inhibition: competition binding vs [125I]AGRP(87-132) at CHO-CRE MC4R cell membranes; details: vs 0.3 nM [125I]AGRP(87-132)
T3 construct: expressed in transfected cells; host or cells: CHO-CRE MC4R cells (membranes)
Source text: Agouti related protein (AGRP) is a high affinity endogenous antagonist/inverse agonist for the MC4 receptor (Lu et al., 1994, Nature 371: 799-802; Oilman et al., 1997, Science 278: 135-138). […] It has been ascertained that this C-terminal fragment of AGRP contains the MC4R binding determinants (Yang et al., 1999, Mol Endocrinol 13: 148-155), therefore, compounds can be evaluated for their ability to inhibit AGRP binding to membranes from cells expressing the MC4R using a competition binding assay versus [^125I]AGRP(87-132). To this end cells expressing the MC4R were subject to homogenisation and the membrane fragment isolated by differential centrifugation. CHO-CRE MC4R cell membranes (12 μg protein) were incubated with 0.3 nM [^125I]AGRP(87-132) and 11 half-log concentrations of competitor ligand, in duplicate, in a total volume of 100 μl buffer (25 mM HEPES, 1 mM MgCl2, 2.5 mM CaCl2, 0.5% BSA pH 7.0). Non-specific binding was determined by the inclusion of 1 μM SHU9119. The reaction was initiated by the addition of membranes and plates were incubated at room temperature for 2 hours. The reaction was terminated by rapid filtration onto GF/C filters (presoaked in 1% PEI) using a vacuum harvester followed by five 200 μl washes of ice cold wash buffer (Binding buffer containing 500 mM NaCl). The filters were soaked in 50 μl scintillation fluid and the amount of radioactivity present was determined by liquid scintillation counting. Ki values were determined by data analysis using appropriate software.

T1 sequence (P41968 whole entry): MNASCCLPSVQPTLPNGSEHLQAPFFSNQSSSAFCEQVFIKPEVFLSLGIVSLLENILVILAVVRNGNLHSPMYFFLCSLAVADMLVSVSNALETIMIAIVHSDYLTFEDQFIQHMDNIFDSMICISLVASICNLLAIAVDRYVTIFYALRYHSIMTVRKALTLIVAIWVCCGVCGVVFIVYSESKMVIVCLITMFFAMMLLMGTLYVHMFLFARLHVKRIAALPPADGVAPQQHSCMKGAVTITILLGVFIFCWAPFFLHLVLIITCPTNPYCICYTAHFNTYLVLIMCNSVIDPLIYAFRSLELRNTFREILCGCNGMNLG
MC4 receptor, sequence (P32245 whole entry): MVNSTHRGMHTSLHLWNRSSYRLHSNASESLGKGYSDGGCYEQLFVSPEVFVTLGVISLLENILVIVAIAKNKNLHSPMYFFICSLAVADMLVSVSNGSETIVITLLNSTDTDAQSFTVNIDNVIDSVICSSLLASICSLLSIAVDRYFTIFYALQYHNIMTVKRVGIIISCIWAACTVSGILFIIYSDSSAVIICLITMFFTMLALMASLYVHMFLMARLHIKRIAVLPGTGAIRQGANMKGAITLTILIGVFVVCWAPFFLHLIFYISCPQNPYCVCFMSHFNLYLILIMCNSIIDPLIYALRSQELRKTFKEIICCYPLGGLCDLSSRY
T3 sequence (P32245 whole entry): as above
T2 sequence (P08684 whole entry, canonical isoform): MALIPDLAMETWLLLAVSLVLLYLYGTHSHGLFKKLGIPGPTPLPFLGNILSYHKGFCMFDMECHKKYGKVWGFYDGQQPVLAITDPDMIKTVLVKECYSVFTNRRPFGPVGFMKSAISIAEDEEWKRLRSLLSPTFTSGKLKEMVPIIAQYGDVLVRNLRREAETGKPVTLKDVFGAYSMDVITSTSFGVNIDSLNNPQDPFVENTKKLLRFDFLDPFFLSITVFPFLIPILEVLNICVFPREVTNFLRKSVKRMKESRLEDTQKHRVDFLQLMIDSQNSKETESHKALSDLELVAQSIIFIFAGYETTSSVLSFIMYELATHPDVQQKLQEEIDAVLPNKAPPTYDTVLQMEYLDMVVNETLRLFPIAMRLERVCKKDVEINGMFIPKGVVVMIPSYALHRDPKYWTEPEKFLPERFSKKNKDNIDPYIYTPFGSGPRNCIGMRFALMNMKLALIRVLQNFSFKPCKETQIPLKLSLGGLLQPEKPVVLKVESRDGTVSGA

microsomal CLint at 1 μM [1]	pEC50 (human MC3 receptor)	microsomal CLint at 1 μM [2]	pEC50 (MC4 receptor)	inhibition at 3 μM (CYP3A4)	pKi (MC4 receptor (MC4R))	Compound
< 19.8 µL/min/mg	7.79	< 7 µL/min/mg	7.92	60%	–	C[C@@H]1CN(C(=O)[C@@H]2CN(c3ccc(Cl)nn3)C[C@H]2c2ccc(Cl)cn2)C[C@H](C)[C@@]1(O)c1ccc(F)cc1 [Example 3, (3R,4R,5S)-1-{[(3S,4S)-1-(6-Chloropyridazin-3-yl)-4-(5-chloropyridin-2-yl)pyrrolidin-3-yl]carbonyl}-4-(4-fluorophenyl)-3,5-dimethylpiperidin-4-ol]
–	–	14 µL/min/mg	6.95	–	6.38	COc1ccc([C@@H]2CN(c3cccnn3)C[C@H]2C(=O)N2C[C@@H](C)[C@](O)(c3ccc(F)cc3)[C@@H](C)C2)cn1 [Example 11]
88.5 µL/min/mg	–	> 352 µL/min/mg	7.04	–	–	COc1ccc(C2CN(c3cccnn3)CC2C(=O)N2CC(C)C(O)(c3ccccc3)C(C)C2)cn1 (stereo not drawn) [Example 12]
–	5.99	–	7.42	6%	6.97	COc1ccc([C@@H]2CN(c3cncc(F)c3)C[C@H]2C(=O)N2C[C@@H](C)[C@](O)(c3ccc(F)cc3)[C@@H](C)C2)cn1 [Example 13]
< 9.75 µL/min/mg	6.89	< 9 µL/min/mg	6.94	–	–	COc1ccc([C@@H]2CN(c3ccc(C#N)cn3)C[C@H]2C(=O)N2C[C@@H](C)[C@](O)(c3ccc(F)cc3)[C@@H](C)C2)cn1 [Example 14]
–	< 4.48	–	7.27	–	–	COc1ccc(C2CN(c3cncc(C#N)c3)CC2C(=O)N2CC(C)C(O)(c3ccc(F)cc3)C(C)C2)cn1 (stereo not drawn) [Example 15]
36 µL/min/mg	–	105 µL/min/mg	8.12	59%	7.40	C[C@@H]1CN(C(=O)[C@@H]2CN(c3ccc(C#N)nn3)C[C@H]2c2ccc(Cl)cn2)C[C@H](C)[C@@]1(O)c1ccccc1 [Example 29]
< 8.5 µL/min/mg	–	< 7 µL/min/mg	7.41	50%	6.43	C[C@@H]1CN(C(=O)[C@@H]2CN(c3ccc(C#N)nn3)C[C@H]2c2ccc(F)cn2)C[C@H](C)[C@@]1(O)c1ccc(F)cc1 [Example 34]
17 µL/min/mg	–	< 7 µL/min/mg	6.77	59%	5.99	C[C@@H]1CN(C(=O)[C@@H]2CN(c3ccc(Cl)nn3)C[C@H]2c2ccc(F)cn2)C[C@H](C)[C@@]1(O)c1ccc(F)cc1 [Example 36]
< 8.5 µL/min/mg	–	< 7 µL/min/mg	6.99	58%	6.47	C[C@@H]1CN(C(=O)[C@@H]2CN(c3ccc(=O)[nH]n3)C[C@H]2c2ccc(F)cn2)C[C@H](C)[C@@]1(O)c1ccc(F)cc1 [Example 38]
–	< 5.02	–	6.55	27%	5.67	COc1ccc([C@@H]2CN(c3ccc(Cl)nn3)C[C@H]2C(=O)N2C[C@@H](C)[C@](O)(c3ccc(F)cc3)[C@@H](C)C2)nc1 [Example 44]
